# Measured values as given in PubChem BioAssay AID2060889 (Molecular Pharmacology Branch, DTP, NCI, 2025).
# Tested on: LG0567-F671-PDC complex spheroids viability
# Test: Anticancer human tumor LG0567-F671-PDC patient-derived lung adenocarcinoma cell line growth inhibition [RAS]
# Details: for IC50: curve of first compound; for viability, T/C: stronger effect = lower value
# Text: RAS pathway inhibitors in Combinations in Complex Spheroids
# A high-throughput screen of multi-cell type tumor spheroids was designed to identify active combinations of RAS pathway inhibitors and targeted small molecules. Complex spheroids include a stromal component modeled by human endothelial cells (HUVEC) and fibroblasts modeled by human mesenchymal stem cells (MSCs). The concentration ranges selected for each drug and investigational agent were based upon clinically achievable concentrations if the clinical Cmax of the agent was known.
# Compounds. The drugs and investigational agents: abemaciclib (NSC768073), cobimetinib (NSC768068), divarasib (GDC6063, NSC841802), docetaxel (NSC628503), GDC-1971 (RLY-1971, NSC841576), gemcitabine (NSC613327), inavolisib (NSC800729), ipatasertib (NSC767898), KB-0742 (NSC834161), MRTX-1133 (NSC836407), osimertinib (NSC779217), RMC-4630 (NSC839698), RMC-6236 (NSC851965), RMC-6291 (NSC852671), Ro-3306 (NSC812927), sapanisertib (NSC764658), SN-38 (NSC673596), staurosporine (NSC755774), SY5609 (NSC837396), and tovorafenib (DAY101, NSC766906), were obtained from the National Cancer Institute (NCI) Developmental Therapeutics Program Chemical Repository. The FDA-approved anticancer drug set is available from the NCI Developmental Therapeutics Program. […] The stock solutions were prepared in dimethyl sulfoxide (DMSO, Sigma-Aldrich, St. Louis, MO, cat. D2650) at 800-fold the tested concentration and stored at -70 degrees C prior to their use. All drugs and investigational agents were tested over a range starting from a high concentration at or near the clinical Cmax and decreasing in half-log increments. If the clinical Cmax for an agent had not been determined, the highest concentration tested was 10 microM.
# Cell Culture. All cells were maintained in an incubator at 37 degrees C and 5% CO2 with 95% humidity. The PDC lines were cultured according to standard operating procedures established by the NCI PDMR. All PDCs were thawed and cultured in Matrigel-coated flasks prepared with a working solution of 1X Ham's F-12 nutrient mix, without supplementation (Invitrogen, Waltham, MA, cat. 11765054), 100 U/mL penicillin-streptomycin (Invitrogen, cat. 15140122), and 2.5% Matrigel (Corning Inc., Corning, NY, cat. 354248) for the first three passages. The 362531-283-R-J2-PDC and 782815-120-R-J1-PDC lines were cultured in 6C/Colon 1B media, which includes advanced DMEM/F-12 (Thermo Fisher Scientific, cat. 12634028), 10 mM HEPES (Thermo Fisher Scientific, cat. 15630080), 1X GlutaMAX supplement (Thermo Fisher Scientific, cat. 35050061), 0.1 mg/mL primocin (InvivoGen, San Diego, CA, cat. ant-pm-2), 10% defined fetal bovine serum, heat inactivated (HyClone Laboratories Inc., Logan, UT, cat. SH30070.03HI), 50% L-WRN conditioned media (ATCC, cat. CRL-3276), 1.25 mM N-Acetyl-L-cysteine (Sigma-Aldrich, cat. A9165), 10 mM nicotinamide (Sigma-Aldrich, cat. N0636), 1X B-27 supplement (Thermo Fisher Scientific, cat. 17504044), 1X N-2 supplement (Thermo Fisher Scientific, cat. 17502048), 50 ng/mL human EGF (Thermo Fisher Scientific, cat. PHG0311), and 10 microM Y-27632 dihydrochloride (Tocris Bioscience, cat. 1254). The K12877-001-R-J1-PDC line was cultured in 6I media, which includes all 6C/Colon 1B media plus 10 ng/mL human FGF-10 (PeproTech, cat. 100-26), 1 ng/mL human FGF-2 (PeproTech, cat. 100-18B), 1 µM prostaglandin E2 (Tocris Bioscience, cat. 2296), […] hydrocortisone (Sigma-Aldrich, cat. H4001), and […] bovine insulin (Sigma-Aldrich, cat. I6634). The K86415-001-R-J1-PDC line was cultured in 6D media, which includes all 6C/Colon 1B media components minus the L-WRN conditioned media. The 485176-168-R4-J1-PDC was cultured in PANC media, which includes all 6C/Colon 1B media plus 100 ng/mL human FGF-10 (PeproTech, cat. 100-26), 500 nM SB-431542 (Selleckchem, cat. S1067), and 10 nM gastrin (Tocris Bioscience, cat. 3006). […]
# 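Also: spheroids exposed to compound for seven days before readout.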
# 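For IC50 in this document: luminescence signal used as a proxy for viable cells.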
structure (smiles),measurement,setting,value
CCC(CC)c1cc(NC2CCC(N)C2)n2nccc2n1 (centres undefined) + CCn1c(-c2cccnc2C(C)OC)c2c3cc(ccc31)N1CCOC(CC(NC(=O)C(C(C)C)N(C)C(=O)C3(F)CCN(C(=O)C#CC(C)(C)N(C)C)CC3)C(=O)N3CCCC(N3)C(=O)OCC(C)(C)C2)C1,IC50,second compound 0.000949 µM,< 31.6 nM
same,IC50,second compound 0.003 µM,< 31.6 nM
same,IC50,second compound 0.00949 µM,< 31.6 nM
same,IC50,second compound 0.03 µM,< 31.6 nM
same,IC50,second compound 0.0949 µM,< 31.6 nM
same,IC50,second compound 0.3 µM,< 31.6 nM
same,"viability, T/C","second compound 0.000949 µM, first compound 0.0316 µM",21.2%
same,"viability, T/C","second compound 0.000949 µM, first compound 0.1 µM",16.6%
same,"viability, T/C","second compound 0.000949 µM, first compound 0.316 µM",13.3%
same,"viability, T/C","second compound 0.000949 µM, first compound 1 µM",13.9%
same,"viability, T/C","second compound 0.000949 µM, first compound 3.16 µM",4.31%
same,"viability, T/C","second compound 0.000949 µM, first compound 10 µM",0.82%
same,"viability, T/C","second compound 0.003 µM, first compound 0.0316 µM",14.1%
same,"viability, T/C","second compound 0.003 µM, first compound 0.1 µM",16.1%
same,"viability, T/C","second compound 0.003 µM, first compound 0.316 µM",14.6%
same,"viability, T/C","second compound 0.003 µM, first compound 1 µM",13.5%
same,"viability, T/C","second compound 0.003 µM, first compound 3.16 µM",4.44%
same,"viability, T/C","second compound 0.003 µM, first compound 10 µM",0.75%
same,"viability, T/C","second compound 0.00949 µM, first compound 0.0316 µM",13.7%
same,"viability, T/C","second compound 0.00949 µM, first compound 0.1 µM",15%
same,"viability, T/C","second compound 0.00949 µM, first compound 0.316 µM",13.3%
same,"viability, T/C","second compound 0.00949 µM, first compound 1 µM",14.2%
same,"viability, T/C","second compound 0.00949 µM, first compound 3.16 µM",3.48%
same,"viability, T/C","second compound 0.00949 µM, first compound 10 µM",0.89%
same,"viability, T/C","second compound 0.03 µM, first compound 0.0316 µM",13.2%
same,"viability, T/C","second compound 0.03 µM, first compound 0.1 µM",13.2%
same,"viability, T/C","second compound 0.03 µM, first compound 0.316 µM",11.8%
same,"viability, T/C","second compound 0.03 µM, first compound 1 µM",12.3%
same,"viability, T/C","second compound 0.03 µM, first compound 3.16 µM",3.67%
same,"viability, T/C","second compound 0.03 µM, first compound 10 µM",0.88%
same,"viability, T/C","second compound 0.0949 µM, first compound 0.0316 µM",10.6%
same,"viability, T/C","second compound 0.0949 µM, first compound 0.1 µM",12.2%
same,"viability, T/C","second compound 0.0949 µM, first compound 0.316 µM",10.4%
same,"viability, T/C","second compound 0.0949 µM, first compound 1 µM",12%
same,"viability, T/C","second compound 0.0949 µM, first compound 3.16 µM",4.19%
same,"viability, T/C","second compound 0.0949 µM, first compound 10 µM",1%
same,"viability, T/C","second compound 0.3 µM, first compound 0.0316 µM",8.88%
same,"viability, T/C","second compound 0.3 µM, first compound 0.1 µM",7.92%
same,"viability, T/C","second compound 0.3 µM, first compound 0.316 µM",8.86%
same,"viability, T/C","second compound 0.3 µM, first compound 1 µM",9.25%
same,"viability, T/C","second compound 0.3 µM, first compound 3.16 µM",3.79%
same,"viability, T/C","second compound 0.3 µM, first compound 10 µM",0.7%
CC(Nc1ccc2c(c1)OCCn1cc(N3C(=O)OCC3C(F)F)nc1-2)C(N)=O (centres undefined) + C=CC(=O)N1CCN(c2nc(OCC3CCCN3C)nc3c(F)c(-c4nc(N)cc(C)c4C(F)(F)F)c(Cl)cc23)C(C)C1,IC50,second compound 0.00316 µM,< 31.6 nM
same,IC50,second compound 0.01 µM,< 31.6 nM
same,IC50,second compound 0.0316 µM,< 31.6 nM
same,IC50,second compound 0.1 µM,< 31.6 nM
same,IC50,second compound 0.316 µM,< 31.6 nM
same,IC50,second compound 1 µM,< 31.6 nM
same,"viability, T/C","second compound 0.00316 µM, first compound 0.0316 µM",15.2%
same,"viability, T/C","second compound 0.00316 µM, first compound 0.1 µM",10.8%
same,"viability, T/C","second compound 0.00316 µM, first compound 0.316 µM",10.1%
same,"viability, T/C","second compound 0.00316 µM, first compound 1 µM",7.83%
same,"viability, T/C","second compound 0.00316 µM, first compound 3.16 µM",7.01%
same,"viability, T/C","second compound 0.00316 µM, first compound 10 µM",5.88%
same,"viability, T/C","second compound 0.01 µM, first compound 0.0316 µM",12%
same,"viability, T/C","second compound 0.01 µM, first compound 0.1 µM",8.85%
same,"viability, T/C","second compound 0.01 µM, first compound 0.316 µM",8.39%
same,"viability, T/C","second compound 0.01 µM, first compound 1 µM",5.85%
same,"viability, T/C","second compound 0.01 µM, first compound 3.16 µM",5.99%
same,"viability, T/C","second compound 0.01 µM, first compound 10 µM",4.79%
same,"viability, T/C","second compound 0.0316 µM, first compound 0.0316 µM",10.2%
same,"viability, T/C","second compound 0.0316 µM, first compound 0.1 µM",9.26%
same,"viability, T/C","second compound 0.0316 µM, first compound 0.316 µM",7.97%
same,"viability, T/C","second compound 0.0316 µM, first compound 1 µM",5.73%
same,"viability, T/C","second compound 0.0316 µM, first compound 3.16 µM",5.76%
same,"viability, T/C","second compound 0.0316 µM, first compound 10 µM",4.64%
same,"viability, T/C","second compound 0.1 µM, first compound 0.0316 µM",13%
same,"viability, T/C","second compound 0.1 µM, first compound 0.1 µM",8.09%
same,"viability, T/C","second compound 0.1 µM, first compound 0.316 µM",6.28%
same,"viability, T/C","second compound 0.1 µM, first compound 1 µM",5.63%
same,"viability, T/C","second compound 0.1 µM, first compound 3.16 µM",5.99%
same,"viability, T/C","second compound 0.1 µM, first compound 10 µM",4.82%
same,"viability, T/C","second compound 0.316 µM, first compound 0.0316 µM",10.5%
same,"viability, T/C","second compound 0.316 µM, first compound 0.1 µM",8.03%
same,"viability, T/C","second compound 0.316 µM, first compound 0.316 µM",7.03%
same,"viability, T/C","second compound 0.316 µM, first compound 1 µM",5.34%
same,"viability, T/C","second compound 0.316 µM, first compound 3.16 µM",6.43%
same,"viability, T/C","second compound 0.316 µM, first compound 10 µM",5.3%
same,"viability, T/C","second compound 1 µM, first compound 0.0316 µM",11.4%
same,"viability, T/C","second compound 1 µM, first compound 0.1 µM",9.66%
same,"viability, T/C","second compound 1 µM, first compound 0.316 µM",6.71%
same,"viability, T/C","second compound 1 µM, first compound 1 µM",6.57%
same,"viability, T/C","second compound 1 µM, first compound 3.16 µM",7.01%
same,"viability, T/C","second compound 1 µM, first compound 10 µM",5.23%
